Measurements taken from US8354403B2, “Pyrrolidine derived beta 3 adrenergic receptor agonists” (Merck Sharp & Dohme Corp., priority 2009, dated 2013).
pEC50: −log10 of the molar value. Where a name gives a salt, the structure may show the parent alone.

What follows are compounds tested against T1, human β3 adrenergic receptor (Homo sapiens, UniProt P13945) (assay: Beta-3 agonist in vitro functional assay: cAMP production (LANCE TR-FRET) in CHO cells stably transfected with the cloned β3 receptor). Details: Table 4; cAMP, CHO cells; read-out: Human β3 agonist functional activity.
T1 construct: expressed in transfected cells; host or cells: Chinese hamster ovary (CHO) cells, stably transfected
T1 sequence (P13945 whole entry): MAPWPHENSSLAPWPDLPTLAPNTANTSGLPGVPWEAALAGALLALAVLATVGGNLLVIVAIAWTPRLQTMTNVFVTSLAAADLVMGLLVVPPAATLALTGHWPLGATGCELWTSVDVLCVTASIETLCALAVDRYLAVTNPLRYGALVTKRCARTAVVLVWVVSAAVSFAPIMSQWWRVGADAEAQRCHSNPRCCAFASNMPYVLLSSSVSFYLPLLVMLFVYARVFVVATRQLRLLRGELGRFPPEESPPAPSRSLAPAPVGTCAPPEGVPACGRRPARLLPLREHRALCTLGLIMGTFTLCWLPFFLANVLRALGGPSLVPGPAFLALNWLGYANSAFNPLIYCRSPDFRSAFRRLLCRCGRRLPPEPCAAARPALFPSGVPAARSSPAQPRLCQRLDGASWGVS
Format: cell-based
Method in brief: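 CHO cells stably expressing the cloned receptor, in HEPES-buffered HBSS with BSA and 0.6 mM IBMX, 6,000 cells/well, exposed to compound for 30 min at RT. cAMP read by LANCE TR-FRET against a cAMP standard curve. Isoproterenol defines maximal stimulation.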
In the case of O=C(c1ccc(C[C@@H]2CC[C@H]([C@H](O)c3ccccc3)N2)cc1)N1CCCC2(CCc3cc(F)ccc3O2)C1 (some centres unmarked) [Example 44], the pEC50 was 6.00 to 7.00.
For COc1ccc2c(c1)C(=O)CC1(CCCN(C(=O)c3ccc(C[C@@H]4CC[C@H]([C@H](O)c5cccnc5)N4)cc3)C1)O2 (some centres unmarked) [Example 42], the pEC50 was 6.00 to 7.00.
For CCOC(=O)C1CCCCN1C(=O)c1ccc(C[C@@H]2CC[C@H]([C@H](O)c3ccccc3)N2)cc1 (some centres unmarked) [Example 48], the pEC50 was 6.00 to 7.00.

Same assay, conditions: Table 5; cAMP, CHO cells; read-out: Human β3 agonist functional activity
With O=C(c1ccc(C[C@@H]2CC[C@H]([C@H](O)c3ccccc3)N2)cc1)N1CCC(c2nnnn2C2CC2)CC1 [Example 110] the pEC50 was > 9.00.
For Cn1nnc(C2CCN(C(=O)c3ccc(C[C@@H]4CC[C@H]([C@H](O)c5ccccc5)N4)cc3)CC2)n1 [Example 106], the pEC50 was 7.00 to 8.00.
For O=C(c1ccc(C[C@@H]2CC[C@H]([C@H](O)c3ccccc3)N2)cc1)N1CCC(S(=O)(=O)c2ccc(F)c(F)c2)CC1 [Example 138], the pEC50 was 7.00 to 8.00.
O=C(c1ccc(C[C@@H]2CC[C@H]([C@H](O)c3ccccc3)N2)cc1)N1CCC(N2C(=O)OCc3ccccc32)CC1 [Example 69] gave a pEC50 of 8.00 to 9.00.
Compound O=C(c1ccc(C[C@@H]2CC[C@H]([C@H](O)c3ccccc3)N2)cc1)N1CCC(COc2cnccn2)CC1 [Example 161] has a pEC50 of 7.00 to 8.00.
COc1ccc(CC2CCN(C(=O)c3ccc(C[C@@H]4CC[C@H]([C@H](O)c5ccccc5)N4)cc3)CC2)cc1F [Example 147] showed a pEC50 of 7.00 to 8.00.
O=C(c1ccc(C[C@@H]2CC[C@H]([C@H](O)c3cccnc3)N2)cc1)N1CCC(n2nccn2)CC1 [Example 94] was tested, and the pEC50 was 6.00 to 7.00.
With COC(=O)c1ccccc1C1CCN(C(=O)c2ccc(C[C@@H]3CC[C@H]([C@H](O)c4ccccc4)N3)cc2)CC1 [Example 111] the pEC50 was 7.00 to 8.00.
With COC(=O)c1csc(C2CCN(C(=O)c3ccc(C[C@@H]4CC[C@H]([C@H](O)c5ccccc5)N4)cc3)CC2)n1 [Example 88] the pEC50 was 7.00 to 8.00.
Compound CCOC(=O)C1CCN(C(=O)c2ccc(C[C@@H]3CC[C@H]([C@H](O)c4ccccc4)N3)cc2)CC1 [Example 118] has a pEC50 of 7.00 to 8.00.
O=C(c1ccc(C[C@@H]2CC[C@H]([C@H](O)c3ccccc3)N2)cc1)N1CCC(S(=O)(=O)O)CC1 [Example 141] gave a pEC50 of 7.00 to 8.00.

Same assay, conditions: Table 8; Beta-3 agonist in vitro functional assay; read-out: Human β3 agonist functional activity
For COc1ccc2c(c1)C(=O)CC1(CCN(C(=O)c3ccc(C[C@@H]4CC[C@H]([C@H](O)c5ccccc5)N4)cc3)CC1)S2(=O)=O [Example 339], the pEC50 was 8.00 to 9.00.
Compound CN1CCCC2(CCN(C(=O)c3ccc(C[C@@H]4CC[C@H]([C@H](O)c5ccccc5)N4)cc3)CC2)C1=O [Example 257] has a pEC50 of 6.00 to 7.00.
Work on O=C(c1ccc(C[C@@H]2CC[C@H]([C@H](O)c3ccccc3)N2)cc1)N1CCC2(CC1)NC(=O)N(Cc1ccccc1)C2=O [Example 269] yielded a pEC50 of 7.00 to 8.00.
O=C1OC2(CCN(C(=O)c3ccc(C[C@@H]4CC[C@H]([C@H](O)c5ccccc5)N4)cc3)CC2)Cc2ccccc21 [Example 333] showed a pEC50 of 8.00 to 9.00.
Work on O=C(c1ccc(C[C@@H]2CC[C@H]([C@H](O)c3ccccc3)N2)cc1)N1CCC2(CCCO2)CC1 [Example 307] yielded a pEC50 of 7.00 to 8.00.
Work on CC1(c2nn[nH]n2)CCN(C(=O)c2ccc(C[C@@H]3CC[C@H]([C@H](O)c4ccccc4)N3)cc2)CC1 [Example 243] yielded a pEC50 of 6.00 to 7.00.
For CC1CC2(CCN(C(=O)c3ccc(C[C@@H]4CC[C@H]([C@H](O)c5ccccc5)N4)cc3)CC2)OC1=O (some centres unmarked) [Example 274], the pEC50 was 7.00 to 8.00.
O=C1C=C(c2ccccc2)C2(CCN(C(=O)c3ccc(C[C@@H]4CC[C@H]([C@H](O)c5ccccc5)N4)cc3)CC2)O1 [Example 281] was tested, and the pEC50 was 8.00 to 9.00.
O=C1CC2(CCN(C(=O)c3ccc(C[C@@H]4CC[C@H]([C@H](O)c5ccccc5)N4)cc3)CC2)Sc2ccccc21 [Example 326] showed a pEC50 of 8.00 to 9.00.
With CN1CC(c2ccc(F)cc2)C2(CCN(C(=O)c3ccc(C[C@@H]4CC[C@H]([C@H](O)c5ccccc5)N4)cc3)CC2)C1=O (some centres unmarked) [Example 262] the pEC50 was > 9.00.
In the case of O=C(c1ccc(C[C@@H]2CC[C@H]([C@H](O)c3ccccc3)N2)cc1)N1CCC(c2ccccc2)(c2nnn[nH]2)CC1 [Example 242], the pEC50 was 7.00 to 8.00.

Same assay, conditions: Table 9; Beta-3 agonist in vitro functional assay; read-out: Human β3 agonist functional activity
O=C(c1ccc(C[C@@H]2CC[C@H]([C@H](O)c3ccccc3)N2)cc1)N1CCN(S(=O)(=O)c2ccccc2)CC1 [Example 346] was tested, and the pEC50 was 7.00 to 8.00.
Compound O=C(O)c1ccccc1N1CCN(C(=O)c2ccc(C[C@@H]3CC[C@H]([C@H](O)c4ccccc4)N3)cc2)CC1 [Example 350] has a pEC50 of 6.00 to 7.00.
Compound O=C(c1ccc(C[C@@H]2CC[C@H]([C@H](O)c3ccccc3)N2)cc1)N1CCN(c2nsc3ccccc23)CC1 [Example 386] has a pEC50 of 7.00 to 8.00.
For O=C(c1ccc(C[C@@H]2CC[C@H]([C@H](O)c3ccccc3)N2)cc1)N1CCN(c2ccccn2)CC1 [Example 355], the pEC50 was 6.00 to 7.00.
Work on O=C(c1ccc(C[C@@H]2CC[C@H]([C@H](O)c3ccccc3)N2)cc1)N1CCN(c2ncccc2O)CC1 [Example 360] yielded a pEC50 of 7.00 to 8.00.
CC(C)n1nnc(CN2CCN(C(=O)c3ccc(C[C@@H]4CC[C@H]([C@H](O)c5ccccc5)N4)cc3)CC2)n1 [Example 402] showed a pEC50 of 7.00 to 8.00.

Same assay, conditions: Table 10; Beta-3 agonist in vitro functional assay; read-out: Human β3 agonist functional activity
For CC(C(=O)N1CC(O)(c2ccccc2)C1)N1CCN(C(=O)c2ccc(C[C@@H]3CC[C@H]([C@H](O)c4ccccc4)N3)cc2)CC1 (some centres unmarked) [Example 474], the pEC50 was 8.00 to 9.00.
CCN(C(=O)C(C)N1CCN(C(=O)c2ccc(C[C@@H]3CC[C@H]([C@H](O)c4ccccc4)N3)cc2)CC1)C(C)C (some centres unmarked) [Example 515] gave a pEC50 of 7.00 to 8.00.
In the case of CC(C(=O)NC1CCNC1=O)N1CCN(C(=O)c2ccc(C[C@@H]3CC[C@H]([C@H](O)c4ccccc4)N3)cc2)CC1 (some centres unmarked) [Example 458], the pEC50 was 6.00 to 7.00.
COC(=O)C(C)N1CCN(C(=O)c2ccc(C[C@@H]3CC[C@H]([C@H](O)c4ccccc4)N3)cc2)CC1 (some centres unmarked) [Example 434] showed a pEC50 of 8.00 to 9.00.
In the case of CC(C(=O)N1CCc2ccc(F)cc2C1)N1CCN(C(=O)c2ccc(C[C@@H]3CC[C@H]([C@H](O)c4ccccc4)N3)cc2)CC1 (some centres unmarked) [Example 509], the pEC50 was 8.00 to 9.00.
Compound COC1CN(C(=O)C(C)N2CCN(C(=O)c3ccc(C[C@@H]4CC[C@H]([C@H](O)c5ccccc5)N4)cc3)CC2)C1 (some centres unmarked) [Example 473] has a pEC50 of 7.00 to 8.00.
CC(C(=O)N1CCc2ccncc2C1)N1CCN(C(=O)c2ccc(C[C@@H]3CC[C@H]([C@H](O)c4ccccc4)N3)cc2)CC1 (some centres unmarked) [Example 506] was tested, and the pEC50 was 7.00 to 8.00.

Same assay, conditions: Table 11; cAMP, CHO cells; read-out: Human β3 agonist functional activity
Work on CC(c1ccccn1)N1CC2CCC1CN2C(=O)c1ccc(CC2CCC(C(O)c3ccccc3)N2)cc1 (centres unmarked) [Example 542] yielded a pEC50 of 6.00 to 7.00.
For O=C(c1ccc(C[C@@H]2CC[C@H]([C@H](O)c3ccccc3)N2)cc1)N1CCN2C(=O)CCC2C1 (some centres unmarked) [Example 550], the pEC50 was 6.00 to 7.00.
In the case of O=C(c1ccc(C[C@@H]2CC[C@H]([C@H](O)c3ccccc3)N2)cc1)N1CC2CCC1CN2Cc1ccccn1 (some centres unmarked) [Example 536], the pEC50 was 6.00 to 7.00.

Same assay, conditions: Table 12; human β3 functional activity given as ranges; read-out: Human β3 agonist functional activity
For CC(c1ncccn1)N1CCN(C(=O)c2ccc(CC3CCC(C(O)c4ccccc4)N3)cc2)CC1 (single isomer, unassigned) [Example 595], the pEC50 was 7.00 to 8.00.

Same assay, conditions: given as a range; cAMP, CHO cells; read-out: human β3 functional activity
O=C(c1ccc(C[C@@H]2CC[C@H]([C@H](O)c3ccccc3)N2)cc1)N1C[C@@H]2C(n3cnnn3)[C@@H]2C1 (stereo partly drawn) [Example 169, (R)-phenyl[(2R,5S)-5-(4-{[(1R,5S,6r)-6-(1H-tetraol-1-yl)-3-azabicyclo[3.1.0]hex-3yl]carbonyl}benzyl)pyrrolidine-2-yl]methanol] gave a pEC50 of 8.00 to 9.00.
In the case of CC(C(=O)N1CCC(F)(F)C1)N1CCN(C(=O)c2ccc(C[C@@H]3CC[C@H]([C@H](O)c4ccccc4)N3)cc2)CC1 (stereo partly drawn) [Example 432, (R)-{(2R,5S)-5-[4-({4-{2-(3,3,-Difluoropyrrolidin-1-yl)-1-methyl-2-oxoethyl]piperazine-1-yl}carbonyl)benzyl}pyrrolidin-2-yl)(phenyl)methanol, TFA salt], the pEC50 was 7.00 to 8.00.
